Experimental data taken from ChEMBL document CHEMBL4507284, “Data for DCP probe BI-1230” (2021).

Experiments:
[1] = target: Histamine H4 receptor (Homo sapiens) (UniProt Q9H3N8); conditions: Compound concentration 10.0 uM
[2] = target: Beta-adrenergic receptor kinase 1 (Homo sapiens) (UniProt P25098); conditions: Compound concentration 1000.0 nM
[3] = target: Serine/threonine-protein kinase SIK1 (Homo sapiens) (UniProt P57059); conditions: Compound concentration 1000.0 nM
[4] = target: Casein kinase I isoform epsilon (Homo sapiens) (UniProt P49674); conditions: Compound concentration 1000.0 nM
[5] = target: Cyclin-dependent kinase 5 (Homo sapiens) (UniProt Q00535); conditions: Compound concentration 1000.0 nM
[6] = target: Delta-type opioid receptor (Homo sapiens) (UniProt P41143); conditions: Compound concentration 10.0 uM
[7] = target: Protein kinase C delta type (Homo sapiens) (UniProt Q05655); conditions: Compound concentration 1000.0 nM
[8] = target: Serine/threonine-protein kinase 26 (Homo sapiens) (UniProt Q9P289); conditions: Compound concentration 1000.0 nM
[9] = target: Serine/threonine-protein kinase Nek4 (Homo sapiens) (UniProt P51957); conditions: Compound concentration 1000.0 nM
[10] = target: Phosphatidylinositol 3-kinase C2 domain-containing subunit gamma (Homo sapiens) (UniProt O75747); conditions: Compound concentration 1000.0 nM
[11] = target: Serine/threonine-protein kinase B-raf (Homo sapiens) (UniProt P15056); conditions: Compound concentration 1000.0 nM
[12] = target: RAC-alpha serine/threonine-protein kinase (Homo sapiens) (UniProt P31749); conditions: Compound concentration 1000.0 nM
[13] = target: Serine/threonine-protein kinase PLK4 (Homo sapiens) (UniProt O00444); conditions: Compound concentration 1000.0 nM
[14] = system: Receptor-type tyrosine-protein kinase FLT3 (Homo sapiens), P36888 [UNDEFINED MUTATION]; conditions: Compound concentration 1000.0 nM
[15] = target: Fibroblast growth factor receptor 3 (Homo sapiens) (UniProt P22607); conditions: Compound concentration 1000.0 nM
[16] = system: Tyrosine-protein kinase ABL1 (Homo sapiens), P00519 [H396P]; conditions: Compound concentration 1000.0 nM
[17] = target: Receptor-interacting serine/threonine-protein kinase 4 (Homo sapiens) (UniProt P57078); conditions: Compound concentration 1000.0 nM
[18] = target: 1-phosphatidylinositol 3-phosphate 5-kinase (Homo sapiens) (UniProt Q9Y2I7); conditions: Compound concentration 1000.0 nM
[19] = target: Wee1-like protein kinase (Homo sapiens) (UniProt P30291); conditions: Compound concentration 1000.0 nM
[20] = target: Serine/threonine-protein kinase MARK2 (Homo sapiens) (UniProt Q7KZI7); conditions: Compound concentration 1000.0 nM
[21] = target: Platelet-derived growth factor receptor beta (Homo sapiens) (UniProt P09619); conditions: Compound concentration 1000.0 nM
[22] = target: Serine/threonine-protein kinase Chk2 (Homo sapiens) (UniProt O96017); conditions: Compound concentration 1000.0 nM
[23] = system: Mast/stem cell growth factor receptor Kit (Homo sapiens), P10721 [V559D]; conditions: Compound concentration 1000.0 nM
[24] = target: Phosphatidylinositol 4-phosphate 5-kinase type-1 alpha (Homo sapiens) (UniProt Q99755); conditions: Compound concentration 1000.0 nM
[25] = target: Tyrosine-protein kinase Tec (Homo sapiens) (UniProt P42680); conditions: Compound concentration 1000.0 nM
[26] = target: Tyrosine-protein kinase Fes/Fps (Homo sapiens) (UniProt P07332); conditions: Compound concentration 1000.0 nM
[27] = target: Rho-associated protein kinase 1 (Homo sapiens) (UniProt Q13464); conditions: Compound concentration 1000.0 nM
[28] = target: Homeodomain-interacting protein kinase 2 (Homo sapiens) (UniProt Q9H2X6); conditions: Compound concentration 1000.0 nM
[29] = target: Sodium-dependent serotonin transporter (Homo sapiens) (UniProt P31645); conditions: Compound concentration 10.0 uM
[30] = target: Cyclin-dependent kinase 4 (Homo sapiens) (UniProt P11802); conditions: Compound concentration 1000.0 nM
[31] = target: Mitogen-activated protein kinase kinase kinase 1 (Homo sapiens) (UniProt Q13233); conditions: Compound concentration 1000.0 nM
[32] = target: Muscarinic acetylcholine receptor M2 (Homo sapiens) (UniProt P08172); conditions: Compound concentration 10.0 uM
[33] = target: Phosphatidylinositol 4-phosphate 5-kinase type-1 gamma (Homo sapiens) (UniProt O60331); conditions: Compound concentration 1000.0 nM
[34] = target: Dual specificity mitogen-activated protein kinase kinase 2 (Homo sapiens) (UniProt P36507); conditions: Compound concentration 1000.0 nM
[35] = target: Vascular endothelial growth factor receptor 1 (Homo sapiens) (UniProt P17948); conditions: Compound concentration 1000.0 nM
[36] = target: Dual specificity mitogen-activated protein kinase kinase 4 (Homo sapiens) (UniProt P45985); conditions: Compound concentration 1000.0 nM
[37] = target: Dual specificity testis-specific protein kinase 1 (Homo sapiens) (UniProt Q15569); conditions: Compound concentration 1000.0 nM
[38] = target: Mitogen-activated protein kinase kinase kinase 4 (Homo sapiens) (UniProt Q9Y6R4); conditions: Compound concentration 1000.0 nM
[39] = target: Microtubule-associated serine/threonine-protein kinase 1 (Homo sapiens) (UniProt Q9Y2H9); conditions: Compound concentration 1000.0 nM
[40] = target: Myosin light chain kinase family member 4 (Homo sapiens) (UniProt Q86YV6); conditions: Compound concentration 1000.0 nM
[41] = target: Tyrosine-protein kinase Fer (Homo sapiens) (UniProt P16591); conditions: Compound concentration 1000.0 nM
[42] = target: Cyclin-dependent kinase 3 (Homo sapiens) (UniProt Q00526); conditions: Compound concentration 1000.0 nM
[43] = target: Activin receptor type-1B (Homo sapiens) (UniProt P36896); conditions: Compound concentration 1000.0 nM
[44] = target: Calcium/calmodulin-dependent protein kinase type 1B (Homo sapiens) (UniProt Q6P2M8); conditions: Compound concentration 1000.0 nM
[45] = target: Receptor-type tyrosine-protein kinase FLT3 (Homo sapiens) (UniProt P36888); conditions: Compound concentration 1000.0 nM

Sequence of Serine/threonine-protein kinase B-raf (Homo sapiens) (P15056 whole entry): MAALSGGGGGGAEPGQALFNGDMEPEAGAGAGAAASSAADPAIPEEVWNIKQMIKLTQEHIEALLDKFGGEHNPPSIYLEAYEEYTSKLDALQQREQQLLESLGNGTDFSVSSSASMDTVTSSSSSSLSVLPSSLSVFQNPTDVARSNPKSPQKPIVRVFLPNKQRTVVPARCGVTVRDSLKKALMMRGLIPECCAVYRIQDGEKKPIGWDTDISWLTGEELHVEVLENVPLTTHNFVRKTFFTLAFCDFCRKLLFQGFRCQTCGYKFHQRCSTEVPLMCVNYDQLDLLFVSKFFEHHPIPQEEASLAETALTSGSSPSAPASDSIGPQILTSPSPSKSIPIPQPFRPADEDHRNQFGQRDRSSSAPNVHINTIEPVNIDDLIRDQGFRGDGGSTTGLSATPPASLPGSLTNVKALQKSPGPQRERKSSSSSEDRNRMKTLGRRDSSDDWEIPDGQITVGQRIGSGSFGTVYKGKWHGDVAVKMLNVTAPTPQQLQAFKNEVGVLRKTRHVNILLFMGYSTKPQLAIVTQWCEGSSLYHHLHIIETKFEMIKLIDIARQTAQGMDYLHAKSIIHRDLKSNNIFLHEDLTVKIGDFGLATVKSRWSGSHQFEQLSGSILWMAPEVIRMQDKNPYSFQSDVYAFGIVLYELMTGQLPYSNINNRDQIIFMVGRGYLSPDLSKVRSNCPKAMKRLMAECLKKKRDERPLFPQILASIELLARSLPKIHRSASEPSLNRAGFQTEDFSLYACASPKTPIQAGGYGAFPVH
Sequence of Phosphatidylinositol 4-phosphate 5-kinase type-1 gamma (Homo sapiens) (O60331 whole entry): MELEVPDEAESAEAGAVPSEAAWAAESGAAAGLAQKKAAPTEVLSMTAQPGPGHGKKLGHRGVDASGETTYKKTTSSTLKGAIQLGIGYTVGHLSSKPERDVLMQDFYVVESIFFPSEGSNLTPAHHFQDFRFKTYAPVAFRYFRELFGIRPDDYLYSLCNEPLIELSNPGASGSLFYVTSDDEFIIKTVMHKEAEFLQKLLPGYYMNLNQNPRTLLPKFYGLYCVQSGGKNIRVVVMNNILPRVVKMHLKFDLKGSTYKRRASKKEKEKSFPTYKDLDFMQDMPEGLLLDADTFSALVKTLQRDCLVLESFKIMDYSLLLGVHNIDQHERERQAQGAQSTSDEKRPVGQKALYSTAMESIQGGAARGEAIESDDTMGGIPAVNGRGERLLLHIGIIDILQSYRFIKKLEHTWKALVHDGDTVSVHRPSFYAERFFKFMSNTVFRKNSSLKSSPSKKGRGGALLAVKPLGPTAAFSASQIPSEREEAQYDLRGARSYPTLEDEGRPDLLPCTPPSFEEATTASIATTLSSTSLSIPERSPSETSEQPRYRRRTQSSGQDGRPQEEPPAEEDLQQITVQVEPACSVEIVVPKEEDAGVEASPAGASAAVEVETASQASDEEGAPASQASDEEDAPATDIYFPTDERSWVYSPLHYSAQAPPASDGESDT
Sequence of Serine/threonine-protein kinase MARK2 (Homo sapiens) (Q7KZI7 whole entry): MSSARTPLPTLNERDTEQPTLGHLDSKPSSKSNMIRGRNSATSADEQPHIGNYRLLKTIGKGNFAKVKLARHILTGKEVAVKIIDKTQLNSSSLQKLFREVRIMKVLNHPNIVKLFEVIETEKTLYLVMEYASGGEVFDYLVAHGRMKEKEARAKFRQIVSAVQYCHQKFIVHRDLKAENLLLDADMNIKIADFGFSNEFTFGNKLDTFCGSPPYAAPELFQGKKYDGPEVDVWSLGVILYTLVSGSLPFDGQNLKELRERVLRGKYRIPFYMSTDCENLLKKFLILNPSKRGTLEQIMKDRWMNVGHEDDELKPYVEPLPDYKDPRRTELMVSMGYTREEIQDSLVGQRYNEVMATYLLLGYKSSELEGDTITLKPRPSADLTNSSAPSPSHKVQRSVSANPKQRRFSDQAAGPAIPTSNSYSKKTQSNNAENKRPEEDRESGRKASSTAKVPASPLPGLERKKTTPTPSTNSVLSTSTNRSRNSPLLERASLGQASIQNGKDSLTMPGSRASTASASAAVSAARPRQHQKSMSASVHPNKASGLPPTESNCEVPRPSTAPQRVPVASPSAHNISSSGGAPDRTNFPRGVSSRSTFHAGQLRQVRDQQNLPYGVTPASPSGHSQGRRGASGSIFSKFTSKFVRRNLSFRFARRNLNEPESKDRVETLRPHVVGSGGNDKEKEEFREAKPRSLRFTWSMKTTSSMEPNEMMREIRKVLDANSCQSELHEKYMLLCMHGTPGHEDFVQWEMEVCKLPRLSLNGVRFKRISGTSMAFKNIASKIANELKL
Sequence of Dual specificity mitogen-activated protein kinase kinase 4 (Homo sapiens) (P45985 whole entry): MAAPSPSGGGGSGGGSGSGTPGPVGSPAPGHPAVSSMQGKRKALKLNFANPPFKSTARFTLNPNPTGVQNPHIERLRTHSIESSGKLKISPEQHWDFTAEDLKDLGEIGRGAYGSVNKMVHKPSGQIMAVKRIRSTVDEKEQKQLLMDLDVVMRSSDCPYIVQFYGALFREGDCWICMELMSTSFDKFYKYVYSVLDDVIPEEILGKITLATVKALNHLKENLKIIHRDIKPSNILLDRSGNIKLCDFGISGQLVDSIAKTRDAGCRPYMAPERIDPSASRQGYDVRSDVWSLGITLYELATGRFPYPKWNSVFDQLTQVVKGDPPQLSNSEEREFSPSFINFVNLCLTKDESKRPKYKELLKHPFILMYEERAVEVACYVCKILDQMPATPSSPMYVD
Sequence of Microtubule-associated serine/threonine-protein kinase 1 (Homo sapiens) (Q9Y2H9 whole entry, looked up): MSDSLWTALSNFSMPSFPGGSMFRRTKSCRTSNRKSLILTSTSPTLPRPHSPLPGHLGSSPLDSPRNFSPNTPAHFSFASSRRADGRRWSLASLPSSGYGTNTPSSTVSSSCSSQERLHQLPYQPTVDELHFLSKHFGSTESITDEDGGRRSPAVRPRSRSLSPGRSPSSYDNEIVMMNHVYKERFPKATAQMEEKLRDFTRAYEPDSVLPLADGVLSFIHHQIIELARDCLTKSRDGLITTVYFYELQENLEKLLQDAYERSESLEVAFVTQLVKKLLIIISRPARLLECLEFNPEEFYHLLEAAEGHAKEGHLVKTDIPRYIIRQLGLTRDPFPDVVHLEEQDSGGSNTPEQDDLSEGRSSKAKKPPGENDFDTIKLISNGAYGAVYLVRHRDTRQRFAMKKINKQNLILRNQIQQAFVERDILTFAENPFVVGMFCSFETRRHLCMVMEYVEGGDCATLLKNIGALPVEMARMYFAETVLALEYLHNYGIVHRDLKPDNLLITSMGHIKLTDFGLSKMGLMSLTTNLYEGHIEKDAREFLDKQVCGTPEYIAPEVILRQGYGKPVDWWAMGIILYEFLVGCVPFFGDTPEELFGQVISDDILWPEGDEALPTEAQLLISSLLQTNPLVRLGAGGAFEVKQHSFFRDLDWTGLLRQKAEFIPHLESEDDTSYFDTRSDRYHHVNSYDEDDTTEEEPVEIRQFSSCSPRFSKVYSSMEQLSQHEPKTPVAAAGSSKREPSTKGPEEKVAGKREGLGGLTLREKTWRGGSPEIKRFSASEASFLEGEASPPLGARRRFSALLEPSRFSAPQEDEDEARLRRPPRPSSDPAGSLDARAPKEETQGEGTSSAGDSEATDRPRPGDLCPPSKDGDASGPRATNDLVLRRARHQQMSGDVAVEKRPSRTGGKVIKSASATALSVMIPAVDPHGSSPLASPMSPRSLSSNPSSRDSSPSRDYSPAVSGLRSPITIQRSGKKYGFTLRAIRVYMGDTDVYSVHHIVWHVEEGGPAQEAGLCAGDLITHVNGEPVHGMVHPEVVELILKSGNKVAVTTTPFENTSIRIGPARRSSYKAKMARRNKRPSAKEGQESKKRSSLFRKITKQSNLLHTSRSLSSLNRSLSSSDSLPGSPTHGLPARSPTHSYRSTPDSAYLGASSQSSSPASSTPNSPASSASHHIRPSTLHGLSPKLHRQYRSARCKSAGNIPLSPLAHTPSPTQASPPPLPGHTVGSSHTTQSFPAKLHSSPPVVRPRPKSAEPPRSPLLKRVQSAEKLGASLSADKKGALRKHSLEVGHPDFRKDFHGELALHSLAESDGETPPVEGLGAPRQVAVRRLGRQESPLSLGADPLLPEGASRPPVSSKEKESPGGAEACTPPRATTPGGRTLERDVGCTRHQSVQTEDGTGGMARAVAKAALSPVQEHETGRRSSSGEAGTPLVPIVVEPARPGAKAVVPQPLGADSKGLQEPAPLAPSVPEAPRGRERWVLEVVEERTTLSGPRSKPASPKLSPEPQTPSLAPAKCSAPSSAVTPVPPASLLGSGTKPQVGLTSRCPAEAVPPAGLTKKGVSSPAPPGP
Sequence of Calcium/calmodulin-dependent protein kinase type 1B (Homo sapiens) (Q6P2M8 whole entry): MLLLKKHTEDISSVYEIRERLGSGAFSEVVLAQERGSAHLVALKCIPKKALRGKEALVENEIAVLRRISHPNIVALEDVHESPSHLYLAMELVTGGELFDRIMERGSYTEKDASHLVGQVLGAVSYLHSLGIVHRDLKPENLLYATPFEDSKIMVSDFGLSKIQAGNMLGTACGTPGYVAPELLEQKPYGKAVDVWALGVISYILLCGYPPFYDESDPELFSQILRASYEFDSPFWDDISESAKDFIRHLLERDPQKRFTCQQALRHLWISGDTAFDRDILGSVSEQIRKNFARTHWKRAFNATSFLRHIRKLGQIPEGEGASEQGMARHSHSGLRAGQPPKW
Sequence of Serine/threonine-protein kinase 26 (Homo sapiens) (Q9P289 2-416 limits assumed): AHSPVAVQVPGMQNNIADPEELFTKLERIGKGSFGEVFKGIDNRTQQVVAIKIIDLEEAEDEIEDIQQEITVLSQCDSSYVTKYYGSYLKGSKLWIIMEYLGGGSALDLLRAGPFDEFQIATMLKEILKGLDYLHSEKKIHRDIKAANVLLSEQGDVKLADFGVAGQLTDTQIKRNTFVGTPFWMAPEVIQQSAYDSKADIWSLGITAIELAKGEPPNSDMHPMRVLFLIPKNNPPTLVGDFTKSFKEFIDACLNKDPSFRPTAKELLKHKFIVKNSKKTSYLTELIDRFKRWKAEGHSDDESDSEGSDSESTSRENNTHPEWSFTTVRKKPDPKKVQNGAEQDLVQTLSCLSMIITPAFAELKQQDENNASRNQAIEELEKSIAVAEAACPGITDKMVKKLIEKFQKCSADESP

COc1ccc2c(O[C@@H]3C[C@H]4C(=O)N[C@]5(C(=O)O)CC5/C=C\CCCCC[C@H](NC(=O)OC5CCCC5)C(=O)N4C3)cc(-c3csc(NC(=O)C(C)C)n3)nc2c1C (stereo not given in full) [BI 1230]
inactive: inhibition [1] 43.5% | residual activity [2] 83% | residual activity [3] 100% | residual activity [4] 100% | residual activity [5] 97% | inhibition [6] 45.8% | residual activity [7] 84% | residual activity [8] 95% | residual activity [9] 93% | residual activity [10] 86% | residual activity [11] 86% | residual activity [12] 100% | residual activity [13] 77% | residual activity [14] 80% | residual activity [15] 100% | residual activity [16] 91% | residual activity [17] 65% | residual activity [18] 100% | residual activity [19] 100% | residual activity [20] 100% | residual activity [21] 94% | residual activity [22] 94% | residual activity [23] 91% | residual activity [24] 98% | residual activity [25] 100% | residual activity [26] 100% | residual activity [27] 98% | residual activity [28] 68% | inhibition [29] -8.36% | residual activity [30] 74% | residual activity [31] 82% | inhibition [32] 3.22% | residual activity [33] 100% | residual activity [34] 77% | residual activity [35] 95% | residual activity [36] 100% | residual activity [37] 91% | residual activity [38] 74% | residual activity [39] 98% | residual activity [40] 81% | residual activity [41] 100% | residual activity [42] 100% | residual activity [43] 100% | residual activity [44] 88% | residual activity [45] 87%

O=C(N[C@H]1CCCCC/C=C\C2C[C@@]2(C(=O)O)NC(=O)[C@@H]2C[C@@H](Oc3ccncc3)CN2C1=O)OC1CCCC1 (stereo not given in full) [BI 1675]
inactive: inhibition [1] -8.87% | residual activity [2] 51% | residual activity [3] 83% | residual activity [4] 67% | residual activity [5] 77% | inhibition [6] -2.02% | residual activity [7] 100% | residual activity [8] 97% | residual activity [9] 79% | residual activity [10] 71% | residual activity [11] 100% | residual activity [12] 100% | residual activity [13] 88% | residual activity [14] 88% | residual activity [15] 88% | residual activity [16] 71% | residual activity [17] 94% | residual activity [18] 100% | residual activity [19] 100% | residual activity [20] 81% | residual activity [21] 87% | residual activity [22] 100% | residual activity [23] 89% | residual activity [24] 99% | residual activity [25] 100% | residual activity [26] 100% | residual activity [27] 100% | residual activity [28] 100% | inhibition [29] -6.94% | residual activity [30] 100% | residual activity [31] 84% | inhibition [32] -1.71% | residual activity [33] 100% | residual activity [34] 87% | residual activity [35] 100% | residual activity [36] 73% | residual activity [37] 97% | residual activity [38] 91% | residual activity [39] 82% | residual activity [40] 100% | residual activity [41] 100% | residual activity [42] 100% | residual activity [43] 100% | residual activity [44] 99% | residual activity [45] 100%
